Values joined by “and” are separate entries in the source; they are usually repeats but may differ in a detail not shown here. Identical values can stand only once. Inconclusive results and toxic doses are left out. Cut-off read from the data, not from the text of the source: active = T/C of 150% or more; inactive = T/C below 125%.
System: L1210 leukemia ip in BDF1 mice, survival T/C
Assay: NCI In Vivo Anticancer Drug Screen. Data for tumor model L1210 Leukemia (intraperitoneal) in B6D2F1 (BDF1) mice
Conditions: endpoint: mean survival time, higher = longer survival
Outline: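 Antitumor effect is assessed in tumor-bearing animals. Survival in the compound arm is compared with a vehicle-dosed control arm and expressed as their quotient.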

[1] = dose: 100.0 mg/kg/injection, schedule: Q01DX009 (ip), vehicle: saline with Tween-80
[2] = dose: 200.0 mg/kg/injection, schedule: Q01DX009 (ip), vehicle: saline with Tween-80
[3] = dose: 400.0 mg/kg/injection, schedule: Q01DX009 (ip), vehicle: saline with Tween-80
[4] = dose: 100.0 mg/kg/injection, schedule: Q01DX001 (ip), vehicle: saline
[5] = dose: 200.0 mg/kg/injection, schedule: Q01DX001 (ip), vehicle: saline
[6] = dose: 400.0 mg/kg/injection, schedule: Q01DX001 (ip), vehicle: saline
[7] = dose: 50.0 mg/kg/injection, schedule: Q01DX009 (ip), vehicle: saline with Tween-80
[8] = dose: 25.0 mg/kg/injection, schedule: Q01DX009 (ip), vehicle: saline with Tween-80
[9] = dose: 100.0 mg/kg/injection, schedule: Q04DX002 (ip), vehicle: Klucel (hydroxypropylcellulose) (HPC)
[10] = dose: 25.0 mg/kg/injection, schedule: Q04DX003 (ip), vehicle: saline
[11] = dose: 100.0 mg/kg/injection, schedule: Q04DX003 (ip), vehicle: saline
[12] = dose: 100.0 mg/kg/injection, schedule: Q01DX009 (ip), vehicle: saline
[13] = dose: 200.0 mg/kg/injection, schedule: Q01DX009 (ip), vehicle: saline
[14] = dose: 200.0 mg/kg/injection, schedule: Q04DX003 (ip), vehicle: saline
[15] = dose: 400.0 mg/kg/injection, schedule: Q01DX009 (ip), vehicle: saline
[16] = dose: 400.0 mg/kg/injection, schedule: Q04DX003 (ip), vehicle: saline

Measured: T/C

CC(C)CCCC(C)C1CCC2C3CC=C4C=C(OC(=O)c5ccccc5)CCC4(C)C3CCC12C (stereo not given)
inactive: [1] 90 % of control | dose: 100.0 mg/kg/injection, schedule: Q04DX003 (ip), vehicle: saline with Tween-80 97 % of control | [2] 87 % of control | dose: 200.0 mg/kg/injection, schedule: Q04DX003 (ip), vehicle: saline with Tween-80 95 % of control | [3] 95 % of control | dose: 400.0 mg/kg/injection, schedule: Q04DX003 (ip), vehicle: saline with Tween-80 87 % of control

CCC1CC2c3cc(OC)c(OC)cc3CCN2CC1(O)Cc1ccncc1 (stereo not given)
inactive: dose: 100.0 mg/kg/injection, schedule: Q04DX003 (ip), vehicle: carboxymethylcellulose (CMC) 100 % of control | dose: 200.0 mg/kg/injection, schedule: Q04DX003 (ip), vehicle: carboxymethylcellulose (CMC) 104 % of control

CC(C)(CBr)C(=O)Cl
inactive: [4] 101 % of control | [5] 106 % of control | [6] 101 % of control

O=C(COc1cc(Cl)c(Cl)cc1Cl)OCCN(CCOC(=O)COc1cc(Cl)c(Cl)cc1Cl)C(=O)COc1ccc(Cl)cc1
inactive: dose: 100.0 mg/kg/injection, schedule: Q01DX009 (ip), vehicle: other 92 % of control | dose: 200.0 mg/kg/injection, schedule: Q01DX009 (ip), vehicle: other 92 % of control | dose: 400.0 mg/kg/injection, schedule: Q01DX009 (ip), vehicle: other 102 % of control

O=C(NNc1ccccc1)NNc1ccccc1 (tested in a mixture with another compound)
inactive: [7] 95 % of control | [1] 95 % of control | [2] 99 % of control

Nc1nc(N)c2nc(-c3ccccc3)c(N)nc2n1
inactive: dose: 2.13 mg/kg/injection, schedule: Q01DX Z (ip), vehicle: other 91 % of control | dose: 6.25 mg/kg/injection, schedule: Q01DX Z (ip), vehicle: other 97 % of control | dose: 12.5 mg/kg/injection, schedule: Q01DX Z (ip), vehicle: other 105 % of control

NC(=O)c1ccccc1NC(=O)Nc1cccc(F)c1
inactive: [8] 89 % of control | [7] 95 % of control | [1] 104 % of control | [2] 90 % of control | [3] 96 % of control

COc1ccc(C(O)C2c3c(cc4c(c3OC)OCO4)CCN2C)c(CO)c1OC (stereo not given)
inactive: dose: 75.0 mg/kg/injection, schedule: Q01DX001 (ip), vehicle: carboxymethylcellulose (CMC) 100 % of control | dose: 150.0 mg/kg/injection, schedule: Q01DX001 (ip), vehicle: carboxymethylcellulose (CMC) 105 % of control

CN(C)N=Nc1ccccc1C(=O)NN
inactive: dose: 18.75 mg/kg/injection, schedule: Q01DX009 (ip), vehicle: Klucel (hydroxypropylcellulose) (HPC) 94 % of control and 110 % of control | dose: 37.5 mg/kg/injection, schedule: Q01DX009 (ip), vehicle: Klucel (hydroxypropylcellulose) (HPC) 105 % of control and 107 % of control | dose: 50.0 mg/kg/injection, schedule: Q01DX001 (ip), vehicle: carboxymethylcellulose (CMC) 101 % of control | dose: 75.0 mg/kg/injection, schedule: Q01DX009 (ip), vehicle: Klucel (hydroxypropylcellulose) (HPC) 100 % of control and 115 % of control | dose: 100.0 mg/kg/injection, schedule: Q01DX001 (ip), vehicle: carboxymethylcellulose (CMC) 101 % of control | dose: 150.0 mg/kg/injection, schedule: Q01DX009 (ip), vehicle: Klucel (hydroxypropylcellulose) (HPC) 107 % of control | dose: 200.0 mg/kg/injection, schedule: Q01DX001 (ip), vehicle: carboxymethylcellulose (CMC) 101 % of control

Cc1ccc(C(O)c2nnc(C(O)c3ccc(C)cc3)nn2)cc1 (stereo not given)
inactive: [9] 88 % of control and 107 % of control and 100 % of control | dose: 200.0 mg/kg/injection, schedule: Q04DX002 (ip), vehicle: Klucel (hydroxypropylcellulose) (HPC) 100 % of control and 96 % of control | dose: 400.0 mg/kg/injection, schedule: Q04DX002 (ip), vehicle: Klucel (hydroxypropylcellulose) (HPC) 96 % of control and 100 % of control

COC1=Nc2ccccc2/C=C\c2ccccc21
inactive: dose: 100.0 mg/kg/injection, schedule: Q04DX002 (ip), vehicle: carboxymethylcellulose (CMC) 96 % of control | dose: 200.0 mg/kg/injection, schedule: Q04DX002 (ip), vehicle: carboxymethylcellulose (CMC) 89 % of control | dose: 400.0 mg/kg/injection, schedule: Q04DX002 (ip), vehicle: carboxymethylcellulose (CMC) 89 % of control

CC1(C)OC2C(COC(N)=O)OC(n3cnc4c(=O)[nH]c(N)nc43)C2O1 (stereo not given)
inactive: dose: 100.0 mg/kg/injection, schedule: Q01DX005 (ip), vehicle: saline 105 % of control | dose: 200.0 mg/kg/injection, schedule: Q01DX005 (ip), vehicle: saline 103 % of control

CCCCCCCCCCNC(=O)C[n+]1cccc(C(=O)N(CC)CC)c1
inactive: dose: 6.25 mg/kg/injection, schedule: Q04DX003 (ip), vehicle: saline 94 % of control | dose: 12.5 mg/kg/injection, schedule: Q04DX003 (ip), vehicle: saline 96 % of control | [10] 93 % of control

BrC1CCCCCCC1Br (stereo not given)
inactive: [10] 102 % of control | dose: 50.0 mg/kg/injection, schedule: Q04DX003 (ip), vehicle: saline 96 % of control | [11] 91 % of control

CCC(CC)NCCOC(=O)c1ccc(N)cc1
inactive: dose: 75.0 mg/kg/injection, schedule: Q01DX001 (ip), vehicle: saline 100 % of control | dose: 150.0 mg/kg/injection, schedule: Q01DX001 (ip), vehicle: saline 98 % of control

CN(C(=O)C1CCCCC1)C1CCCCC1O (stereo not given)
inactive: [7] 101 % of control | [1] 93 % of control | [2] 90 % of control

O=C1OCC/C1=C\N1CCCCC1
inactive: dose: 25.0 mg/kg/injection, schedule: Q04DX002 (ip), vehicle: Klucel (hydroxypropylcellulose) (HPC) 113 % of control | dose: 50.0 mg/kg/injection, schedule: Q04DX002 (ip), vehicle: Klucel (hydroxypropylcellulose) (HPC) 98 % of control | [9] 98 % of control and 101 % of control

S=C=NCCc1ccccc1
inactive: dose: 12.5 mg/kg/injection, schedule: Q01DX009 (ip), vehicle: saline with Tween-80 101 % of control | [8] 104 % of control | [7] 108 % of control | [1] 87 % of control

OCC(O)Cc1ccccc1 (stereo not given)
inactive: [12] 97 % of control | [11] 102 % of control | [13] 105 % of control | [14] 102 % of control | [15] 108 % of control | [16] 101 % of control

CCOC(=O)CCNC(COCc1ccccc1)C(=O)OCC (stereo not given)
inactive: [4] 98 % of control | [5] 95 % of control | [6] 106 % of control

CC(=O)NCCOc1ccc([N+](=O)[O-])cc1Cl
inactive: dose: 100.0 mg/kg/injection, schedule: Q01DX001 (ip), vehicle: Klucel (hydroxypropylcellulose) (HPC) 100 % of control | dose: 200.0 mg/kg/injection, schedule: Q01DX001 (ip), vehicle: Klucel (hydroxypropylcellulose) (HPC) 110 % of control

CCOC(=O)C1CN(Cc2ccccc2)CCC1=O (stereo not given)
inactive: [11] 103 % of control | [14] 106 % of control | [16] 100 % of control

Cn1cc(NC(=O)c2cc(NC(=O)CN=C(N)N)cn2C)cc1C(=O)NCCC(=N)N
inactive: dose: 6.3 mg/kg/injection, schedule: Q01DX Z (ip), vehicle: saline 88 % of control | dose: 12.5 mg/kg/injection, schedule: Q01DX Z (ip), vehicle: saline 92 % of control

Clc1cccc(Nc2nc(Cl)nc(C(Cl)(Cl)Cl)c2Cl)c1
inactive: [1] 88 % of control | [2] 94 % of control | [3] 88 % of control

Nc1nnnc2c1ncn2C1CCCC1
inactive: dose: 75.0 mg/kg/injection, schedule: Q01DX001 (ip), vehicle: other 97 % of control

CCOC(=O)C1CN(C)CCC1=O (stereo not given)
inactive: [4] 108 % of control | [12] 123 % of control | [11] 100 % of control | [5] 101 % of control | [13] 98 % of control | [14] 104 % of control | [6] 97 % of control | [15] 96 % of control | [16] 98 % of control

O=C1NC(=O)C([N+](=O)[O-])=C(O)C1=O
inactive: [11] 96 % of control | [14] 101 % of control

CCCCCCC(CCCCCC)(CCCCCC)B1OCCO1
inactive: dose: 100.0 mg/kg/injection, schedule: Q01DX009 (ip), vehicle: saline sonified 96 % of control | [11] 102 % of control | dose: 200.0 mg/kg/injection, schedule: Q01DX009 (ip), vehicle: saline sonified 106 % of control | [14] 102 % of control | dose: 400.0 mg/kg/injection, schedule: Q01DX009 (ip), vehicle: saline sonified 95 % of control | [16] 96 % of control

Cn1c(=S)[nH]c2cc(Cl)c(Cl)cc21
inactive: [11] 100 % of control | [14] 105 % of control | [16] 97 % of control

Reference: PubChem BioAssay AID248 (DTP/NCI, 2004)
